From paper PMC4445981, “The glutamate transport inhibitor DL-Threo-β-Benzyloxyaspartic acid (DL-TBOA) differentially affects SN38- and oxaliplatin-induced death of drug-resistant colorectal cancer cells” (BMC Cancer, 2015)

Columns and labels:
Format in all cases: cell-based, human
[1] = system: [3H]-D-Asp uptake (glutamate transporter activity) in LoVo-PAR cells; assay: [3H]-D-Asp uptake assay, LoVo-PAR; details: LoVo-PAR, 100 nM [3H]-D-Asp, 6 min, 37 °C
Method: (§1) We therefore next determined glutamate transporter activity (as uptake of the substrate [^3H]-D-Asp following a 6-min incubation in buffer supplemented with a tracer concentration of 100 nM [^3H]-D-Asp). […] To determine which transporter(s) was responsible for the [^3H]-D-Asp uptake, we assessed the effect of DL-TBOA, a nonselective inhibitor of EAATs, and UCPH-101, a specific SLC1A3 inhibitor [16, 28, 29]. […] Basal [^3H]-D-Asp uptake was decreased by about 60 % in SN38-resistant compared to parental HCT116 cells, whereas that in SN38-resistant LoVo cells was nearly tripled compared to parental LoVo cells.
(§2) The [^3H]-D-Asp uptake assay was performed essentially as in [30]. Briefly, cells were split into poly-D-lysine-coated white 96-well plates (PerkinElmer). A similar number of cells were seeded for HCT116 parental, HCT116-SN38 and HCT116-Oxa cell lines (7 × 10^4 cells/well) and LoVo parental, Lovo-SN38 and Lovo-Oxa cell lines (6 × 10^4 cells/well). 16–24 h later, culture medium was aspirated, and cells were washed once with 100 μl assay buffer (Hank’s Buffered Saline Solution supplemented with 20 mM HEPES, 1 mM CaCl2 and 1 mM MgCl2, pH 7.4). 50 μl assay buffer supplemented with 100 nM [^3H]-D-Asp and test compounds as indicated was added, and the plate was incubated at 37 °C for 6 min. Non-specific [^3H]-D-Asp uptake was determined in wells with 3 mM L-glutamate. The assay mixture was quickly removed, and wells were washed with 2 × 100 μl ice-cold assay buffer, followed by 150 μl Microscint™20 scintillation fluid (PerkinElmer). The plate was shaken for 1 h and counted in a Wallac 1450 MicroBeta Trilux scintillation counter (GMI, Ramsey, MN).

[2] = system: [3H]-D-Asp uptake in HCT116 and LoVo cells (parental and resistant); assay: [3H]-D-Asp uptake assay, summary over cell lines; details: all cell lines; read-out: IC50 values, inhibition of basal [3H]-D-Asp uptake
Method: as §1, §2

parental LoVo cells = assay: MTT viability assay, parental LoVo cells; details: 350 μM DL-TBOA, 48 h
Method: Fig. 2 DL-TBOA augments SN38-induced death in SN38-resistant cells, but protects oxaliplatin-resistant cells from oxaliplatin-induced death. Parental and drug-resistant HCT116 and LoVo cell lines seeded in 96-well dishes were exposed to SN38 (0.1 or 0.8 μM) or oxaliplatin (0.8 or 20 μM), alone or in combination with 70 or 350 μM DL-TBOA as indicated, for 48 h. Viability was assessed by MTT assay. a-b Parental HCT116 cells, (c) SN38 resistant HCT116 cells, (d) Oxaliplatin-resistant HCT116 cells, (e-f) Parental LoVo cells, (g) SN38 resistant LoVo cells, (h) Oxaliplatin-resistant LoVo cells. Data are means with S.E.M. error bars of 3 independent experiments. *) p < 0.05, **) p < 0.01, ***) p < 0.001 compared to the control group without drug or TBOA treatment; #) p < 0.05 compared to controls without TBOA treatment. One-way ANOVA followed by Dunnett post-test
Cells were seeded at appropriate density (LoVo 10,000, and HCT116 5000 cells /100 μl) in growth medium in 96-well plates. Next day, cells were treated with inhibitors and/or chemotherapy in a total volume of 200 μl in growth medium and incubated for 48 h at 37 °C, 5 % CO2. […] Absorbance was measured in an ELISA plate reader (Thermo Scientific MultiScan FC) at 550 nm. Data were background subtracted and % viability relative to controls calculated.

[3] = system: retinoblastoma protein phosphorylation on Ser 807/811 (pRb); assay: pRb (Ser 807/811) level by Western blotting
Method: Cells were grown to a confluence of 60-80 % and treated with chemotherapy, siRNA- or plasmid transfection as indicated. Cells were washed once in PBS, lysed in lysis buffer (1 % SDS, 0.1 M Tris pH 7.5, and 1 mM Na3VO4), sonicated, and protein content determined (DC assay, BioRad). Lysates were mixed 2:1with NuPage LDS sample buffer (Invitrogen). SDS-PAGE was carried out in NOVEX chambers with NuPAGE 10 % Bis-Tris gels under reducing and denaturing conditions, using BenchMark protein ladder (Invitrogen), and 15 μg protein per lane. Proteins were transferred to PVDF membranes, which were Ponceau S stained, blocked for 1 h at 37 °C in 5 % nonfat dry milk in TBST (0.01 M Tris/HCl, 0.15 M NaCl, 0.1 % Tween 20, pH 7.4), incubated overnight at 4 °C with primary antibodies diluted in blocking buffer, washed in TBST, incubated with secondary antibodies for 1 h, washed in TBST, and developed using BCIP/NBT (KPL). Bands were scanned and quantified using UN-SCAN-IT (Silk Scientific).
Supplementary file 12885_2015_1405_MOESM5_ESM.tiff: Additional file 5: Figure S5. Effects of DL-TBOA on proliferation after chemotherapy treatment. Parental and drug-resistant HCT116 (A) and LoVo (B) cell lines seeded in 6-well dishes were exposed to SN38 (0.8 μM) or oxaliplatin (20 μM) alone or in combination with 350 μM DL-TBOA as indicated, for 24 h. Equal amounts of protein per lane were separated by SDS-PAGE and the protein levels of phosphorylation of retinoblastoma protein on Ser 807/811 (pRb) were determined by Western blotting. Top: Representative Western blots, with β-actin as loading control. Bottom: Densitometric quantifications based on 3 independent experiments per condition. Data are means with S.E.M. error bars of 3 independent experiments. Two-way ANOVA with Tukey post-test.

N[C@H](C(=O)O)[C@H](OCc1ccccc1)C(=O)O (racemic) [TBOA, DL-Threo-β-Benzyloxyaspartic acid]
pIC50 ± S.E.M., [3H]-D-Asp uptake [1]: 5.84 ± 0.03
IC50 ([1]; read-out: IC50, [3H]-D-Asp uptake): 1400 nM
IC50 [2]: ~2000 nM
effect on loss of viability induced by 0.8 μM oxaliplatin (parental LoVo cells): essentially abolished the loss of viability
effect on cellular level of phospho-Retinoblastoma protein ([3]; DL-TBOA, HCT116 and LoVo cells): did not significantly alter
effect on pRb level after oxaliplatin treatment ([3]; all cell types except oxaliplatin-resistant HCT116, 350 μM DL-TBOA + 20 μM oxaliplatin, 24 h, not statistically significant): slightly but consistently decreased pRb levels
effect on pRb level ([3]; control conditions, both parental cell lines, 350 μM DL-TBOA, 24 h, not statistically significant): tended to increase pRb levels
